Experimental data taken from patent US10065941B2, “Aminotriazine derivative and pharmaceutical composition comprising the same” (Shionogi & Co., Ltd., priority 2013, dated 2018).

Biological target: human P2X3 receptor (Homo sapiens (Human), UniProt P56373)
Sequence (P56373 whole entry): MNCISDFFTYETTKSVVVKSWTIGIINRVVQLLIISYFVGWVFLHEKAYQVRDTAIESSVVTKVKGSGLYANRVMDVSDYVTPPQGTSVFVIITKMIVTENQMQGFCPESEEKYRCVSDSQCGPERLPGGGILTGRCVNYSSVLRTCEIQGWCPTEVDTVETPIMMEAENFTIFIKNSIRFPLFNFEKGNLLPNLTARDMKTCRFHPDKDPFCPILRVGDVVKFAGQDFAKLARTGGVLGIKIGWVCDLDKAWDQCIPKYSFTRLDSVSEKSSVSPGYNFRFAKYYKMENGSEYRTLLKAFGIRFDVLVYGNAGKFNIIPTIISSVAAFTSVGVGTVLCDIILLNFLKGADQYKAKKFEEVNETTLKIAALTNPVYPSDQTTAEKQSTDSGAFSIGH
Test: Evaluation of human P2X3 receptor inhibitory activity (Test Example 1)
Format: cell-based
Settings: C6BU-1 cell transfected with human P2X3 receptor gene, FLIPR 384
Summary of the method: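 C6BU-1 cells stably expressing human P2X3, loaded with 4 μM Fluo-3-AM 1 h at 37 °C, preincubated 5 min with test compound, then stimulated with 150 nM ATP solution (stock, pre-dispense) and monitored by FLIPR for 4 min. IC50 derived from maximum fluorescence ratio (post-ATP peak over baseline).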
Compound C[C@@H](Cn1c(=O)[nH]/c(=N\c2ccc(Oc3cccc(Cl)n3)cc2)n(Cc2ccc(Cl)cc2)c1=O)C(=O)O [Compound I-014] has an IC50 of 7 nM. For O=C(O)C1(Cn2c(=O)[nH]/c(=N\c3ccc(Oc4cccc(F)n4)cc3)n(Cc3ccc(Cl)cc3)c2=O)CC1 [Compound I-017], the IC50 was 6 nM. In the case of C[C@@H](Cn1c(=O)[nH]/c(=N\c2ccc(Oc3cccc(F)n3)cc2)n(Cc2ccc(F)cc2F)c1=O)C(=O)O [Compound I-029], the IC50 is reported as 14 nM. With Cc1ccc(Oc2ccc(/N=c3\[nH]c(=O)n(CC(C)(C)C(=O)O)c(=O)n3Cc3ccc(Cl)cc3)cc2)nc1 [Compound I-058] the IC50 was 6 nM. O=c1[nH]/c(=N\c2ccc(Oc3ncccc3F)cc2)n(Cc2ccc(Cl)cc2)c(=O)n1[C@H]1C[C@H](C(=O)O)C1 [Compound I-063] gave an IC50 of 9 nM. Compound C[C@@H](Cn1c(=O)[nH]/c(=N\c2ccc(Oc3cc(F)ccn3)cc2)n(Cc2ccc(Cl)cc2)c1=O)C(=O)O [Compound I-070] has an IC50 of 5 nM. Compound C[C@@H](Cn1c(=O)[nH]/c(=N\c2ccc(Oc3ccccn3)cc2)n(Cc2ccc(Cl)cc2)c1=O)C(=O)O [Compound I-127] has an IC50 of 4 nM. Compound Cc1ccc(Cn2c(=O)n(CCCC(=O)O)c(=O)[nH]/c2=N\c2ccc(Oc3ncccc3F)cc2)cc1 [Compound R-277] has an IC50 of 14 nM. In the case of Cc1ccc(Cn2c(=O)n(CCCC(=O)O)c(=O)[nH]/c2=N\c2ccc(Oc3ccc(F)cn3)cc2)cc1 [Compound R-278], the IC50 is reported as 15 nM. Cc1ccc(Cn2c(=O)n(CCCC(=O)O)c(=O)[nH]/c2=N\c2ccc(Oc3cccc(F)n3)cc2)cc1 [Compound R-279] showed an IC50 of 7 nM. For Cc1ccc(Cn2c(=O)n(CCC(=O)O)c(=O)[nH]/c2=N\c2ccc(Oc3ccccn3)c(F)c2)cc1 [Compound R-280], the IC50 was 9 nM. O=C(O)CCn1c(=O)[nH]/c(=N\c2ccc(Oc3ccccn3)c(F)c2)n(Cc2ccc(Cl)cc2)c1=O [Compound R-281] gave an IC50 of 7 nM. Work on Cc1ccc(Cn2c(=O)n(CCC(=O)O)c(=O)[nH]/c2=N\c2ccc(Oc3ccccn3)c(C)c2)cc1 [Compound R-282] yielded an IC50 of 23 nM. Cc1cc(/N=c2\[nH]c(=O)n(CCC(=O)O)c(=O)n2Cc2ccc(Cl)cc2)ccc1Oc1ccccn1 [Compound R-283] gave an IC50 of 28 nM. In the case of O=C(O)CCn1c(=O)[nH]/c(=N\c2ccc(Oc3ccc(Cl)cn3)cc2)n(Cc2ccc(Cl)cc2)c1=O [Compound R-284], the IC50 is reported as 5 nM. Cc1ccc(Cn2c(=O)n(CCC(=O)O)c(=O)[nH]/c2=N\c2ccc(Oc3ccc(Cl)cn3)cc2)cc1 [Compound R-285] showed an IC50 of 6 nM. COC(=O)CCn1c(=O)[nH]/c(=N\c2ccc(Oc3cccc(F)n3)cc2)n(Cc2ccc(CF)cc2)c1=O [Compound R-286] showed an IC50 of 6 nM. For COC(=O)CCn1c(=O)[nH]/c(=N\c2ccc(Oc3ccc(Cl)cn3)cc2)n(Cc2ccc(Cl)cc2)c1=O [Compound R-287], the IC50 was 6 nM. COC(=O)CCn1c(=O)[nH]/c(=N\c2ccc(Oc3ncccc3F)cc2)n(Cc2ccc(CF)cc2)c1=O [Compound R-288] gave an IC50 of 12 nM. With COC(=O)CCn1c(=O)[nH]/c(=N\c2ccc(Oc3ccc(Cl)cn3)cc2)n(Cc2ccc(C)cc2)c1=O [Compound R-289] the IC50 was 5 nM. Compound COC(=O)CCn1c(=O)[nH]/c(=N\c2ccc(Oc3ccccn3)c(C)c2)n(Cc2ccc(C)cc2)c1=O [Compound R-290] has an IC50 of 6 nM. In the case of COC(=O)CCn1c(=O)[nH]/c(=N\c2ccc(Oc3ccccn3)c(C)c2)n(Cc2ccc(Cl)cc2)c1=O [Compound R-291], the IC50 is reported as 6 nM. Compound COC(=O)CCn1c(=O)[nH]/c(=N\c2ccc(Oc3ccccn3)c(F)c2)n(Cc2ccc(C)cc2)c1=O [Compound R-292] has an IC50 of 4 nM. Compound COC(=O)CCn1c(=O)[nH]/c(=N\c2ccc(Oc3ccccn3)c(F)c2)n(Cc2ccc(Cl)cc2)c1=O [Compound R-293] has an IC50 of 4 nM. CCOC(=O)CCCn1c(=O)[nH]/c(=N\c2ccc(Oc3ncccc3F)cc2)n(Cc2ccc(C)cc2)c1=O [Compound R-294] gave an IC50 of 6 nM. CCOC(=O)CCCn1c(=O)[nH]/c(=N\c2ccc(Oc3ccc(F)cn3)cc2)n(Cc2ccc(C)cc2)c1=O [Compound R-295] gave an IC50 of 6 nM. In the case of CCOC(=O)CCCn1c(=O)[nH]/c(=N\c2ccc(Oc3cccc(F)n3)cc2)n(Cc2ccc(C)cc2)c1=O [Compound R-296], the IC50 is reported as 5 nM. Work on O=C(O)CCn1c(=O)[nH]/c(=N\c2ccc(Oc3ccccn3)c(Cl)c2)n(Cc2ccc(Cl)cc2)c1=O [Compound R-297] yielded an IC50 of 8 nM. Cc1ccc(Cn2c(=O)n(CCC(=O)O)c(=O)[nH]/c2=N\c2ccc(Oc3ccccn3)c(Cl)c2)cc1 [Compound R-298] gave an IC50 of 9 nM. CC(=O)c1cccc(Oc2ccc(/N=c3\[nH]c(=O)n(CCC(=O)O)c(=O)n3Cc3ccc(Cl)cc3)cc2)n1 [Compound R-299] gave an IC50 of 20 nM. Compound COC(=O)CCn1c(=O)[nH]/c(=N\c2ccc(Oc3ccccn3)c(Cl)c2)n(Cc2ccc(Cl)cc2)c1=O [Compound R-300] has an IC50 of 8 nM. For COC(=O)CCn1c(=O)[nH]/c(=N\c2ccc(Oc3ccccn3)c(Cl)c2)n(Cc2ccc(C)cc2)c1=O [Compound R-301], the IC50 was 5 nM. For COC(=O)CCn1c(=O)[nH]/c(=N\c2ccc(Oc3cccc(C(C)=O)n3)cc2)n(Cc2ccc(Cl)cc2)c1=O [Compound R-302], the IC50 was 6 nM. For COC(=O)CCn1c(=O)[nH]/c(=N\c2ccc(Oc3ccc(C(C)=O)cn3)cc2)n(Cc2ccc(Cl)cc2)c1=O [Compound R-303], the IC50 was 3 nM. COC(=O)CCn1c(=O)[nH]/c(=N\c2ccc(Oc3ccc(C(C)O)cn3)cc2)n(Cc2ccc(Cl)cc2)c1=O (stereo not shown) [Compound R-304] gave an IC50 of 4 nM. For CC(=O)c1ccc(Oc2ccc(/N=c3\[nH]c(=O)n(CCC(=O)O)c(=O)n3Cc3ccc(Cl)cc3)cc2)nc1 [Compound R-305], the IC50 was 7 nM. Work on CC(O)c1ccc(Oc2ccc(/N=c3\[nH]c(=O)n(CCC(=O)O)c(=O)n3Cc3ccc(Cl)cc3)cc2)nc1 (stereo not shown) [Compound R-306] yielded an IC50 of 14 nM. For CCOC(=O)Cn1c(=O)[nH]/c(=N\c2ccc(Oc3ccccn3)cc2)n(Cc2ccc(F)cc2)c1=O [Compound R-307], the IC50 was 13 nM. CCOC(=O)Cn1c(=O)[nH]/c(=N\c2ccc(Oc3ccc(F)cn3)cc2)n(Cc2ccc(Cl)cc2)c1=O [Compound R-309] gave an IC50 of 4 nM. For CCOC(=O)Cn1c(=O)[nH]/c(=N\c2ccc(Oc3ccc(Cl)cn3)cc2)n(Cc2ccc(Cl)cc2)c1=O [Compound R-310], the IC50 was 4 nM. Compound O=C(O)Cn1c(=O)[nH]/c(=N\c2ccc(Oc3ccc(F)cn3)cc2)n(Cc2ccc(Cl)cc2)c1=O [Compound R-311] has an IC50 of 428 nM. O=C(O)Cn1c(=O)[nH]/c(=N\c2ccc(Oc3ccc(Cl)cn3)cc2)n(Cc2ccc(Cl)cc2)c1=O [Compound R-312] gave an IC50 of 350 nM. Compound CCOC(=O)Cn1c(=O)[nH]/c(=N\c2ccc(Oc3ccc(C#N)cn3)cc2)n(Cc2ccc(Cl)cc2)c1=O [Compound R-313] has an IC50 of 3 nM. Work on N#Cc1ccc(Oc2ccc(/N=c3\[nH]c(=O)n(CC(=O)O)c(=O)n3Cc3ccc(Cl)cc3)cc2)nc1 [Compound R-314] yielded an IC50 of 48 nM.

System: not listed separately
Test: Metabolism stability test, pooled human hepatic microsomes (Test Example 11)
Format: in vitro ADME
Settings: human liver microsomes, 30 minutes, compound concentration 0.5 μmol/L
Protocol: Using commercially available pooled human hepatic microsomes, a test compound is reacted for a constant time, a remaining rate is calculated by comparing a reacted sample and an unreacted sample, thereby, a degree of metabolism in liver is assessed.
A reaction was performed (oxidative reaction) at 37° C. for 0 minute or 30 minutes in the presence of 1 mmol/L NADPH in 0.2 mL of a buffer (50 mmol/L tris-HCl pH 7.4, 150 mmol/L potassium chloride, 10 mmol/L magnesium chloride) containing 0.5 mg protein/mL of human liver microsomes. After the reaction, 50 μL of the reaction solution was added to 100 μL of a methanol/acetonitrile=1/1 (v/v), mixed and centrifuged at 3000 rpm for 15 minutes. The test compound in the supernatant was quantified by LC/MS/MS, and a remaining amount of the test compound after the reaction was calculated, letting a compound amount at 0 minute reaction time to be 100%.
The remaining rate at the compound concentration 0.5 μmol/L are shown below.
In the case of C[C@@H](Cn1c(=O)[nH]/c(=N\c2ccc(Oc3cccc(F)n3)cc2)n(Cc2ccc(F)cc2F)c1=O)C(=O)O [Compound I-029], the “Metabolism Stability (remaining rate)” value is reported as 100%. For O=c1[nH]/c(=N\c2ccc(Oc3ncccc3F)cc2)n(Cc2ccc(Cl)cc2)c(=O)n1[C@H]1C[C@H](C(=O)O)C1 [Compound I-063], the “Metabolism Stability (remaining rate)” value was 97%. With C[C@@H](Cn1c(=O)[nH]/c(=N\c2ccc(Oc3cc(F)ccn3)cc2)n(Cc2ccc(Cl)cc2)c1=O)C(=O)O [Compound I-070] the “Metabolism Stability (remaining rate)” value was 103%.

System: not listed separately
Test: Pharmacokinetic test: bioavailability and total body clearance (Test Example 15)
Format: in vivo
Settings: SD rats, from AUCs of oral and intravenous groups
Protocol: • (1) Animals: SD rats were used • (2) Breeding conditions: SD rats were allowed to freely take solid food and sterilized tap water. • (3) Dose and grouping: orally or intravenously administered at a predetermined dose; grouping was as follows (Dose depends on the compound)
Oral administration: 1 mg/kg (n=2)
The total body clearance (CLtot) was calculated by dividing the dose by the AUC of the intravenous administration group.
C[C@@H](Cn1c(=O)[nH]/c(=N\c2ccc(Oc3cccc(Cl)n3)cc2)n(Cc2ccc(Cl)cc2)c1=O)C(=O)O [Compound I-014] gave a BA of 106.2%. O=C(O)C1(Cn2c(=O)[nH]/c(=N\c3ccc(Oc4cccc(F)n4)cc3)n(Cc3ccc(Cl)cc3)c2=O)CC1 [Compound I-017] showed a BA of 80.7%. Compound Cc1ccc(Cn2c(=O)n(C[C@H](C)C(=O)O)c(=O)[nH]/c2=N\c2ccc(Oc3ccc(F)cn3)cc2)cc1 [Compound I-040] has a BA of 70.3%. Compound Cc1ccc(Oc2ccc(/N=c3\[nH]c(=O)n(CC(C)(C)C(=O)O)c(=O)n3Cc3ccc(Cl)cc3)cc2)nc1 [Compound I-058] has a BA of 67.2%. Compound C[C@@H](Cn1c(=O)[nH]/c(=N\c2ccc(Oc3ccccn3)cc2)n(Cc2ccc(Cl)cc2)c1=O)C(=O)O [Compound I-127] has a BA of 52.8%.
